System: 616215-338-R-J1-PDC complex spheroids, viability % test/control
Assay: Anticancer human tumor 616215-338-R-J1-PDC patient-derived colon adenocarcinoma cell line growth inhibition [CLK]
Settings: for IC50: curve of first compound; for viability, T/C: stronger effect = lower value; active means viability on the fitted dose curve at most 10% of control; inactive means the rest
In short: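 Multi-cell-type spheroids combined patient-derived tumor cells with HUVEC endothelial cells and human mesenchymal stem cells. Paired agents were dosed in half-log steps down from about clinical Cmax, or from 10 microM where Cmax was unknown.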
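Further: spheroids exposed to agents for 7 days.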
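Wherever viability, T/C is given: 100% = DMSO vehicle wells.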

CC1COCCN1c1cc(C2(S(C)(=N)=O)CC2)nc(-c2ccnc3[nH]ccc23)n1 (centres undefined) + CN1CCN(c2cc(C(=O)Nc3cc4cc(-c5cnn(C)c5)ccc4cn3)ccn2)CC1
inactive: viability, T/C (second compound 0.0316 µM, first compound 0.0316 µM) 98.6% | viability, T/C (second compound 0.0316 µM, first compound 0.1 µM) 99.8% | viability, T/C (second compound 0.0316 µM, first compound 0.316 µM) 95.3% | viability, T/C (second compound 0.0316 µM, first compound 1 µM) 105% | viability, T/C (second compound 0.0316 µM, first compound 3.16 µM) 102% | viability, T/C (second compound 0.0316 µM, first compound 10 µM) 54.7% | viability, T/C (second compound 0.1 µM, first compound 0.0316 µM) 117% | viability, T/C (second compound 0.1 µM, first compound 0.1 µM) 106% | viability, T/C (second compound 0.1 µM, first compound 0.316 µM) 96.6% | viability, T/C (second compound 0.1 µM, first compound 1 µM) 102% | viability, T/C (second compound 0.1 µM, first compound 3.16 µM) 60.5% | viability, T/C (second compound 0.1 µM, first compound 10 µM) 33.5% | viability, T/C (second compound 0.316 µM, first compound 0.0316 µM) 34.7% | viability, T/C (second compound 0.316 µM, first compound 0.1 µM) 29.4% | viability, T/C (second compound 0.316 µM, first compound 0.316 µM) 28.4% | viability, T/C (second compound 0.316 µM, first compound 1 µM) 21.3% | viability, T/C (second compound 0.316 µM, first compound 3.16 µM) 23.9% | viability, T/C (second compound 0.316 µM, first compound 10 µM) 15.4%
< 0.0316 µM: IC50 (second compound 0.316 µM) | IC50 (second compound 1 µM) | IC50 (second compound 3.16 µM) | IC50 (second compound 10 µM)
4.97 µM: IC50 (second compound 0.1 µM)
active: viability, T/C (second compound 1 µM, first compound 0.0316 µM) 0.14% | viability, T/C (second compound 1 µM, first compound 0.1 µM) 2.28% | viability, T/C (second compound 1 µM, first compound 0.316 µM) 2.21% | viability, T/C (second compound 1 µM, first compound 1 µM) 0.15% | viability, T/C (second compound 1 µM, first compound 3.16 µM) 0.1% | viability, T/C (second compound 1 µM, first compound 10 µM) 2.62% | viability, T/C (second compound 3.16 µM, first compound 0.0316 µM) 0.14% | viability, T/C (second compound 3.16 µM, first compound 0.1 µM) 0.12% | viability, T/C (second compound 3.16 µM, first compound 0.316 µM) 0.15% | viability, T/C (second compound 3.16 µM, first compound 1 µM) 0.14% | viability, T/C (second compound 3.16 µM, first compound 3.16 µM) 2.05% | viability, T/C (second compound 3.16 µM, first compound 10 µM) 3.08% | viability, T/C (second compound 10 µM, first compound 0.0316 µM) 0.16% | viability, T/C (second compound 10 µM, first compound 0.1 µM) 0.15% | viability, T/C (second compound 10 µM, first compound 0.316 µM) 0.21% | viability, T/C (second compound 10 µM, first compound 1 µM) 0.23% | viability, T/C (second compound 10 µM, first compound 3.16 µM) 0.23% | viability, T/C (second compound 10 µM, first compound 10 µM) 0.24%
> 10 µM: IC50 (second compound 0.0316 µM)

NC(=O)C(=Cn1cnc(-c2cc(C(F)(F)F)cc(C(F)(F)F)c2)n1)c1cncnc1 + CNC(=O)c1ccc(Nc2nc(OC3CCCC3)c3c(-c4ccc5nc(C)oc5c4)c[nH]c3n2)c(OC)c1
inactive: viability, T/C (second compound 0.0316 µM, first compound 0.00949 µM) 84.9% | viability, T/C (second compound 0.0316 µM, first compound 0.03 µM) 95.5% | viability, T/C (second compound 0.0316 µM, first compound 0.0949 µM) 96% | viability, T/C (second compound 0.0316 µM, first compound 0.3 µM) 77.6% | viability, T/C (second compound 0.0316 µM, first compound 0.949 µM) 36.6% | viability, T/C (second compound 0.0316 µM, first compound 3 µM) 18.4% | viability, T/C (second compound 0.1 µM, first compound 0.00949 µM) 45.4% | viability, T/C (second compound 0.1 µM, first compound 0.03 µM) 48.2% | viability, T/C (second compound 0.1 µM, first compound 0.0949 µM) 34.1% | viability, T/C (second compound 0.1 µM, first compound 0.3 µM) 33.1% | viability, T/C (second compound 0.1 µM, first compound 0.949 µM) 32.5% | viability, T/C (second compound 0.1 µM, first compound 3 µM) 15.8% | viability, T/C (second compound 0.316 µM, first compound 0.00949 µM) 34% | viability, T/C (second compound 0.316 µM, first compound 0.03 µM) 30.4% | viability, T/C (second compound 0.316 µM, first compound 0.0949 µM) 29.7% | viability, T/C (second compound 0.316 µM, first compound 0.3 µM) 25.4% | viability, T/C (second compound 0.316 µM, first compound 0.949 µM) 29.3% | viability, T/C (second compound 0.316 µM, first compound 3 µM) 12.8% | viability, T/C (second compound 1 µM, first compound 0.00949 µM) 34.5% | viability, T/C (second compound 1 µM, first compound 0.03 µM) 33.4% | viability, T/C (second compound 1 µM, first compound 0.0949 µM) 30.5% | viability, T/C (second compound 1 µM, first compound 0.3 µM) 26.9% | viability, T/C (second compound 1 µM, first compound 0.949 µM) 18.3% | viability, T/C (second compound 3.16 µM, first compound 0.00949 µM) 33.5% | viability, T/C (second compound 3.16 µM, first compound 0.03 µM) 35% | viability, T/C (second compound 3.16 µM, first compound 0.0949 µM) 27.7% | viability, T/C (second compound 3.16 µM, first compound 0.3 µM) 23.3% | viability, T/C (second compound 3.16 µM, first compound 0.949 µM) 13.1% | viability, T/C (second compound 10 µM, first compound 0.00949 µM) 31.3% | viability, T/C (second compound 10 µM, first compound 0.03 µM) 28.5% | viability, T/C (second compound 10 µM, first compound 0.0949 µM) 28.9% | viability, T/C (second compound 10 µM, first compound 0.3 µM) 19.7% | viability, T/C (second compound 10 µM, first compound 0.949 µM) 10.8%
0.651 µM: IC50 (second compound 0.0316 µM)
active: viability, T/C (second compound 1 µM, first compound 3 µM) 7.01% | viability, T/C (second compound 3.16 µM, first compound 3 µM) 4.39% | viability, T/C (second compound 10 µM, first compound 3 µM) 2.88%
< 0.00949 µM: IC50 (second compound 0.1 µM) | IC50 (second compound 0.316 µM) | IC50 (second compound 1 µM) | IC50 (second compound 3.16 µM) | IC50 (second compound 10 µM)
